Assay results: patent publication USRE32311E
Converted amounts (≈) assume the structure as drawn.

Columns and labels:
Staphylococcus aureus = test: experimental bacterial infection in mice, ED50; format: in vivo; conditions: two doses
[1] = system: Streptococcus Group D X66; test: agar-dilution MIC; format: cell-based
Procedure: (§1) In Table VII activity is measured by the minimal inhibitory concentration (MIC), i.e. the lowest concentration of compound at which growth of the microorganism is inhibited by the test compound.

[2] = system: Staphylococcus epidermidis EP11; test: agar-dilution MIC; format: cell-based
Procedure: as §1

[3] = system: Staphylococcus aureus X400; test: agar-dilution MIC; format: cell-based; conditions: Staphylococcus aureus X400, methicillin-resistant strain
Procedure: as §1

[4] = system: Streptococcus pyogenes C203; test: agar-dilution MIC; format: cell-based
Procedure: as §1

[5] = system: Streptococcus pneumoniae Park I; format: cell-based; conditions: agar dilution
Procedure: as §1

Streptococcus pyogenes = test: experimental bacterial infection in mice, ED50; format: in vivo; conditions: two doses
[6] = system: Staphylococcus aureus V41; test: agar-dilution MIC; format: cell-based; conditions: Staphylococcus aureus V41, penicillin-resistant strain
Procedure: as §1

[7] = system: Staphylococcus epidermidis EP12; test: agar-dilution MIC; format: cell-based
Procedure: as §1

[8] = system: Staphylococcus aureus X1.1; test: agar-dilution MIC; format: cell-based
toxicity, LD50 in mice = format: in vivo; conditions: administered intravenously
[9] = system: Streptococcus Group D 9960; test: agar-dilution MIC; format: cell-based

Compound | ED50 Staphylococcus aureus Subcutaneous (Staphylococcus aureus) [mg/kg × 2] | MIC [1] [µg/mL] | MIC [2] [µg/mL] | MIC [3] [µg/mL] | MIC [4] [µg/mL] | MIC [5] [µg/mL] | ED50 Streptococcus pyogenes Oral (Streptococcus pyogenes) [mg/kg × 2] | MIC [6] [µg/mL] | MIC [7] [µg/mL] | MIC [8] [µg/mL] | LD50 in Mice (toxicity, LD50 in mice) [mg/kg] | MIC [9] [µg/mL] | ED50 Streptococcus pyogenes Subcutaneous (Streptococcus pyogenes; subcutaneous) [mg/kg × 2]
CCCCCCCCCCCC(=O)Nc1cccc(C(=O)N[C@@H](Cc2c[nH]c3ccccc23)C(=O)N[C@H](CC(N)=O)C(=O)N[C@@H](CC(=O)O)C(=O)N[C@@H]2C(=O)NCC(=O)N[C@@H](CCCN)C(=O)N[C@@H](CC(=O)O)C(=O)N[C@H](C)C(=O)N[C@@H](CC(=O)O)C(=O)NCC(=O)N[C@H](CO)C(=O)N[C@@H]([C@H](C)CC(=O)O)C(=O)N[C@@H](CC(=O)c3ccccc3N)C(=O)O[C@@H]2C)c1 [Compound 5] | 1.67 | 4 (≈ 2.26 µM) | 2 (≈ 1.13 µM) | 1 (≈ 0.566 µM) | 0.25 (≈ 0.141 µM) | 0.25 (≈ 0.141 µM) | > 200 | 0.5 (≈ 0.283 µM) | 1 (≈ 0.566 µM) | 0.5 (≈ 0.283 µM) | 277 | 1 (≈ 0.566 µM) | 
CCC(C)CCCCCCC(=O)N[C@@H](Cc1c[nH]c2ccccc12)C(=O)N[C@@H](CC(N)=O)C(=O)N[C@@H](CC(=O)O)C(=O)N[C@@H]1C(=O)NCC(=O)N[C@@H](CCCNC(=O)CCC(=O)O)C(=O)N[C@@H](CC(=O)O)C(=O)N[C@H](C)C(=O)N[C@@H](CC(=O)O)C(=O)NCC(=O)N[C@H](CO)C(=O)N[C@@H]([C@H](C)CC(=O)O)C(=O)N[C@@H](CC(=O)c2ccccc2N)C(=O)O[C@@H]1C (stereo partly drawn) [Compound 15] | > 18 | 4 (≈ 2.31 µM) | 4 (≈ 2.31 µM) | 8 (≈ 4.61 µM) | 1 (≈ 0.576 µM) | 0.25 (≈ 0.144 µM) |  | 2 (≈ 1.15 µM) | 4 (≈ 2.31 µM) | 1 (≈ 0.576 µM) | 250 | 4 (≈ 2.31 µM) | 1.02
CCCCCCCCCCCC(=O)N[C@@H](Cc1c[nH]c2ccccc12)C(=O)N[C@@H](Cc1c[nH]c2ccccc12)C(=O)N[C@H](CC(N)=O)C(=O)N[C@@H](CC(=O)O)C(=O)N[C@@H]1C(=O)NCC(=O)N[C@@H](CCCN)C(=O)N[C@@H](CC(=O)O)C(=O)N[C@H](C)C(=O)N[C@@H](CC(=O)O)C(=O)NCC(=O)N[C@H](CO)C(=O)N[C@@H]([C@H](C)CC(=O)O)C(=O)N[C@@H](CC(=O)c2ccccc2N)C(=O)O[C@@H]1C [Compound 24] | 2.3 | 16 (≈ 8.72 µM) | 4 (≈ 2.18 µM) | 4 (≈ 2.18 µM) | 2 (≈ 1.09 µM) | 1 (≈ 0.545 µM) | > 200 | 2 (≈ 1.09 µM) | 4 (≈ 2.18 µM) | 1 (≈ 0.545 µM) | 450 | 4 (≈ 2.18 µM) | 
